Laboratory results published in ChEMBL document CHEMBL5036362, “Salidroside Promotes Sensitization to Doxorubicin in Human Cancer Cells by Affecting the PI3K/Akt/HIF Signal Pathway and Inhibiting the Expression of Tumor-Resistance-Related Proteins” (J Nat Prod, 2022).
pIC50: −log10 of the molar value. Activity calls are given as the source filed them. No cut-off for these calls is given here.

Assays:
[1] = Toxicity in DOX induced BALB/c nude mouse xenografted with human HeLa cells assessed as induction of convulsions at 80 mg/kg, ig administered every 2 days for 18 days; format: organism-based; details: in vivo, po, 432 h, time 18 day
HeLa [2] = test: Downregulation of doxorubicin induced MMP-9 protein expression in human HeLa cells after 48 hrs by western blotting analysis; format: functional, cell-based
HeLa [3] = test: Antitumor activity against human HeLa cells xenografted in BALB/c nude mouse assessed as potentiation of doxorubicin induced tumor growth inhibition at 80 mg/kg, ig administered every 2 days for 18 days by firefly luciferase based bioluminescence assay; format: functional, organism-based; details: time 18.0 day
HeLa [4] = test: Upregulation of doxorubicin induced BAX protein expression in human HeLa cells after 48 hrs by western blotting analysis; format: functional, cell-based
[5] = Toxicity in BALB/c nude mouse xenografted with human HeLa cells assessed as induction of incontinence at 80 mg/kg, ig administered every 2 days for 18 days; format: organism-based; details: in vivo, po, 432 h, time 18 day
Mus musculus [6] = test: Effect on DOX induced tissue damage in BALB/c nude mouse xenografted with human HeLa cells assessed as spleen enlargement at 80 mg/kg, ig administered every 2 days for 18 days by H and E staining; format: functional, organism-based
[7] = Decrease in MDR1 gene expression in DOX induced human HeLa cells by RT-PCR analysis; format: functional
HeLa [8] = test: Antiproliferative activity against human HeLa cells assessed as inhibition of cell proliferation measured after 48 hrs by CCK-8 assay; format: functional, cell-based
[9] = Toxicity in BALB/c nude mouse xenografted with human HeLa cells assessed as potentiation of doxorubicin induced inflammation in myocardial tissue at 80 mg/kg, ig administered every 2 days for 18 days by H and E staining; format: organism-based, Myocardium/plasma; details: in vivo, po, 432 h, time 18 day
HeLa [10] = test: Downregulation of doxorubicin induced AKT protein expression in human HeLa cells after 48 hrs by western blotting analysis; format: functional, cell-based
HeLa [11] = test: Inhibition of hypoxia-inducible factor 1 alpha in DOX induced human HeLa cells assessed as downregulation of protein at 0.017 mmol/L after 48 hrs by Western blotting analysis; format: functional
[12] = Toxicity in DOX induced BALB/c nude mouse xenografted with human HeLa cells assessed as change in body weight at 80 mg/kg, ig administered every 2 days for 18 days; format: organism-based; details: in vivo, po, 432 h, time 18 day
Mus musculus [13] = test: Effect on DOX induced tissue damage in BALB/c nude mouse xenografted with human HeLa cells assessed as inflammatory cell infiltration in liver at 80 mg/kg, ig administered every 2 days for 18 days by H and E staining; format: functional, organism-based; details: time 18.0 day
HeLa [14] = test: Induction of morphological change in human HeLa cells assessed as reduction in size measured after 48 hrs by CCK-8 assay; format: functional, cell-based
HeLa [15] = test: Antimigratory activity against human HeLa cells at 0.017 mmol/L measured upto 48 hrs by electron microscope based Wound healing assay relative to control; format: functional; details: time hrs <=48
HeLa [16] = test: Upregulation of BAX protein expression in human HeLa cells after 48 hrs by western blotting analysis; format: functional, cell-based
[17] = Toxicity in BALB/c nude mouse xenografted with human HeLa cells assessed as induction of breathing difficulties at 80 mg/kg, ig administered every 2 days for 18 days; format: organism-based; details: in vivo, po, 432 h, time 18 day
[18] = Toxicity in BALB/c nude mouse xenografted with human HeLa cells assessed as change in body weight at 80 mg/kg, ig administered every 2 days for 18 days; format: organism-based; details: in vivo, po, 432 h, time 18 day
HeLa [19] = test: Downregulation of AKT protein expression in human HeLa cells after 48 hrs by western blotting analysis; format: functional, cell-based
HeLa [20] = test: Antitumor activity against DOX induced human HeLa cells xenografted in BALB/c nude mouse assessed as induction of apoptosis by measuring increase in TUNEL positive nuclei at 80 mg/kg, ig administered every 2 days for 18 days by TUNEL staining based assay; format: functional, organism-based; details: time 18.0 day
Mus musculus [21] = test: Effect on DOX induced tissue damage in BALB/c nude mouse xenografted with human HeLa cells assessed as appearance of lesions in glomerular tubule at 80 mg/kg, ig for administered every 2 days for 18 days by H and E staining; format: functional, organism-based; details: Renal glomerulus, time 18.0 day
[22] = Toxicity in DOX induced BALB/c nude mouse xenografted with human HeLa cells assessed as induction of incontinence at 80 mg/kg, ig administered every 2 days for 18 days; format: organism-based; details: in vivo, po, 432 h, time 18 day
[23] = Toxicity in DOX induced BALB/c nude mouse xenografted with human HeLa cells assessed as induction of breathing difficulties at 80 mg/kg, ig administered every 2 days for 18 days; format: organism-based; details: in vivo, po, 432 h, time 18 day
HeLa [24] = test: Induction of morphological change in human HeLa cells assessed as potentiation of doxorubicin induced cell shrinkage measured after 48 hrs in by CCK-8 assay; format: functional, cell-based
HeLa [25] = test: Downregulation of MMP-2 protein expression in human HeLa cells after 48 hrs by western blotting analysis; format: functional, cell-based
HeLa [26] = test: Downregulation of PI3K protein expression in human HeLa cells after 48 hrs by western blotting analysis; format: functional, cell-based
[27] = Toxicity in BALB/c nude mouse xenografted with human HeLa cells assessed as induction of fainting at 80 mg/kg, ig administered every 2 days for 18 days; format: organism-based; details: in vivo, po, 432 h, time 18 day
[28] = Toxicity in DOX induced BALB/c nude mouse xenografted with human HeLa cells assessed as induction of fainting at 80 mg/kg, ig administered every 2 days for 18 days; format: organism-based; details: in vivo, po, 432 h, time 18 day
[29] = Decrease in MDR1 gene expression in human HeLa cells by qRT-PCR analysis; format: functional; details: dose 0.017 mol/L; time 48 hrs
HeLa [30] = test: Downregulation of doxorubicin induced MMP-2 protein expression in human HeLa cells after 48 hrs by western blotting analysis; format: functional, cell-based
[31] = Toxicity in BALB/c nude mouse xenografted with human HeLa cells assessed as induction of convulsions at 80 mg/kg, ig administered every 2 days for 18 days; format: organism-based; details: in vivo, po, 432 h, time 18 day
HeLa [32] = test: Antitumor activity against human HeLa cells xenografted in BALB/c nude mouse assessed as tumor growth inhibition at 80 mg/kg, ig for administered every 2 days for 18 days by firefly luciferase based bioluminescence assay; format: functional, organism-based; details: time 18.0 day
HeLa [33] = test: Downregulation of Bcl-2 protein expression in human HeLa cells after 48 hrs by western blotting analysis; format: functional, cell-based
HeLa [34] = test: Downregulation of doxorubicin induced Bcl-2 protein expression in human HeLa cells after 48 hrs by western blotting analysis; format: functional, cell-based
HeLa [35] = test: Cytotoxicity against human HeLa cells assessed as reduction in cell viability measured after 48 hrs by CCK-8 assay; format: functional
HeLa [36] = test: Downregulation of MMP-9 protein expression in human HeLa cells after 48 hrs by western blotting analysis; format: functional, cell-based
HeLa [37] = test: Downregulation of doxorubicin induced PI3K protein expression in human HeLa cells after 48 hrs by western blotting analysis; format: functional, cell-based
HeLa [38] = test: Cytotoxicity against human HeLa cells assessed as potentiation of doxorubicin induced cell survival measured after 72 hrs by CCK-8 assay; format: functional
HeLa [39] = test: Induction of morphological change in human HeLa cells assessed as potentiation of doxorubicin induced reduction in size measured after 48 hrs in presence of doxorubicin by CCK-8 assay; format: functional, cell-based
HeLa [40] = test: Induction of morphological change in human HeLa cells assessed as cell shrinkage measured after 48 hrs by CCK-8 assay; format: functional, cell-based
HeLa [41] = test: Inhibition of potentiation of doxorubicin induced cell migration in human HeLa cells measured upto 48 hrs by electron microscope based Wound healing assay relative to control; format: functional; details: time hrs <=48
[42] = Toxicity in BALB/c nude mouse xenografted with human HeLa cells assessed as change in body weight at 1 mg/kg, ip administered every 2 days for 18 days; format: organism-based; details: in vivo, 432 h, time 18 day
[43] = Toxicity in BALB/c nude mouse xenografted with human HeLa cells assessed as induction of convulsions at 1 mg/kg, ip administered every 2 days for 18 days; format: organism-based; details: in vivo, 432 h, time 18 day
[44] = Toxicity in BALB/c nude mouse xenografted with human HeLa cells assessed as induction of incontinence at 1 mg/kg, ip administered every 2 days for 18 days; format: organism-based; details: in vivo, 432 h, time 18 day
HeLa [45] = test: Antitumor activity against human HeLa cells xenografted in BALB/c nude mouse assessed as tumor growth inhibition at 1 mg/kg, ip administered every 2 days for 18 days by firefly luciferase based bioluminescence assay; format: functional, organism-based; details: time 18.0 day
[46] = Toxicity in BALB/c nude mouse xenografted with human HeLa cells assessed as induction of breathing difficulties at 1 mg/kg, ip administered every 2 days for 18 days; format: organism-based; details: in vivo, 432 h, time 18 day
[47] = Toxicity in BALB/c nude mouse xenografted with human HeLa cells assessed as induction of fainting at 1 mg/kg, ip administered every 2 days for 18 days; format: organism-based; details: in vivo, 432 h, time 18 day
[48] = Induction of MDR1 gene expression in human HeLa cells by qRT-PCR analysis; format: functional
[49] = Toxicity in BALB/c nude mouse xenografted with human HeLa cells assessed as inflammation in myocardial tissue at 1 mg/kg, ip administered every 2 days for 18 days by H and E staining; format: organism-based, Myocardium/plasma; details: in vivo, 432 h, time 18 day
HeLa [50] = test: Antimigratory activity against human HeLa cells at 0.22 uM measured upto 48 hrs by electron microscope based Wound healing assay relative to control; format: functional; details: time hrs <=48

With `OC[C@H]1O[C@@H](OCCc2ccc(O)cc2)[C@H](O)[C@@H](O)[C@@H]1O` [SALIDROSIDE] the Activity [1] was “Non-Toxic”, the Activity (HeLa [2]) was “Active” and the Activity (HeLa [3]) was “Active”. For the same molecule, the Activity (HeLa [4]) was “Active”, the Activity [5] was “Non-Toxic” and the Activity (Mus musculus [6]) was “inactive”. For the same molecule, the Activity [7] was 2.76, the pIC50 (HeLa [8]) was 4.98 and the Activity [9] was “Non-Toxic”. For the same molecule, the Activity (HeLa [10]) was “Active”, the Activity (HeLa [11]) was “Active” and the Activity [12] was “Non-Toxic”. For the same molecule, the Activity (Mus musculus [13]) was “inactive”, the Activity (HeLa [14]) was “Active” and the Activity (HeLa [15]) was 56.34%. For the same molecule, the Activity (HeLa [16]) was “Active”, the Activity [17] was “Non-Toxic” and the Activity [18] was “Non-Toxic”. For the same molecule, the Activity (HeLa [19]) was “Active”, the Activity (HeLa [20]) was “Active” and the Activity (Mus musculus [21]) was “inactive”. For the same molecule, the Activity [22] was “Non-Toxic”, the Activity [23] was “Non-Toxic” and the Activity (HeLa [24]) was “Active”. The Activity (HeLa [25]) was “Active”, the Activity (HeLa [26]) was “Active” and the Activity [27] was “Non-Toxic”. The Activity [28] was “Non-Toxic”, the Activity [29] was 1.65 and the Activity (HeLa [30]) was “Active”. The Activity [31] was “Non-Toxic”, the Activity (HeLa [32]) was “Active” and the Activity (HeLa [33]) was “Active”. The Activity (HeLa [34]) was “Active”, the Activity (HeLa [35]) was 0.183 µM and the Activity (HeLa [36]) was “Active”. For the same molecule, the Activity (HeLa [37]) was “Active”, the Activity (HeLa [38]) was greater than 85% and the Activity (HeLa [39]) was “Active”. The Activity (HeLa [40]) was “Active” and the “inhibition (INH)” value (HeLa [41]) was 18.95%.

With `COc1cccc2c1C(=O)c1c(O)c3c(c(O)c1C2=O)C[C@@](O)(C(=O)CO)C[C@@H]3O[C@H]1C[C@H](N)[C@H](O)[C@H](C)O1` [DOXORUBICIN] the Activity [42] was “Non-Toxic”, the Activity [43] was “Non-Toxic” and the Activity [44] was “Non-Toxic”. For the same molecule, the Activity (HeLa [14]) was “Active”, the Activity (HeLa [45]) was “inactive” and the Activity [46] was “Non-Toxic”. For the same molecule, the Activity [47] was “Non-Toxic”, the Activity (HeLa [35]) was 2.67 µM and the Activity [48] was 8.69. The Activity [49] was “Toxic”, the Activity (HeLa [50]) was 57.14% and the Activity (HeLa [40]) was “Active”.
